Read-outs that look alike come from different tables or passages of the source.
Target: T1, hTRPC5 S495A (Homo sapiens, UniProt Q9UL62, S495A)
T1 construct: We use full-length nontagged hTRPC5 construct for FLIPR assay unless indicated otherwise; expressed in transfected cells; host or cells: AD293
T1 sequence (Q9UL62 1-973 S495A): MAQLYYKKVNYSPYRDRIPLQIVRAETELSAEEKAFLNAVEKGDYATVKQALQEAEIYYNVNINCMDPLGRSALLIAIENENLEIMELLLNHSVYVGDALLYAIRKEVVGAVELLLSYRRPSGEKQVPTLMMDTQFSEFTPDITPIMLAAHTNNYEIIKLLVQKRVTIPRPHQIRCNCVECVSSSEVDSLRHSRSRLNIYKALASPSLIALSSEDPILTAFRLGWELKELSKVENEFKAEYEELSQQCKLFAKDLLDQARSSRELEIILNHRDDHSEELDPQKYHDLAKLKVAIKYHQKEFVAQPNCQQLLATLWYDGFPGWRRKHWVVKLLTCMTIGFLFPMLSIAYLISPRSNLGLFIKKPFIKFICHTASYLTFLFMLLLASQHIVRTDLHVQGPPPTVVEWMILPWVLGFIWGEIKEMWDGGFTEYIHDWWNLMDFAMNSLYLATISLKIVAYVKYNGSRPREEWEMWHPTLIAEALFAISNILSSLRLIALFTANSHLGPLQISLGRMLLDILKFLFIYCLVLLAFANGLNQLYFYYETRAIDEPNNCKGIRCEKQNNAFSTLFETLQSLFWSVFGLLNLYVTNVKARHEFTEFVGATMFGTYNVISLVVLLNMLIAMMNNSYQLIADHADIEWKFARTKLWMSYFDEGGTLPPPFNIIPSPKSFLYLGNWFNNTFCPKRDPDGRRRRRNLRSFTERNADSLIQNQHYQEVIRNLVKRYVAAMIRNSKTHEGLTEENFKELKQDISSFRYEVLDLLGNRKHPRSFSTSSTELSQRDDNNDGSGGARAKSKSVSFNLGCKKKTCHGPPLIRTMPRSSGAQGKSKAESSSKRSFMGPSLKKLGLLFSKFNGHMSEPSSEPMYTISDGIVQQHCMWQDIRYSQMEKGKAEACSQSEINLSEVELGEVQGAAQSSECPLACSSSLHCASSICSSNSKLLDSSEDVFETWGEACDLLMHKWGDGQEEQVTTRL
Assay: FLIPR calcium assay, hTRPC5 mutant S495A
Assay type: cell-based
Experimental: […]. Then the suspended cell culture was further diluted for 5.4- to 7-fold with culture medium and seeded onto black well, clear bottom, poly-D-lysine-coated 96-well plate (Costar) and cultured overnight. We use full-length nontagged hTRPC5 construct for FLIPR assay unless indicated otherwise. hTRPC5 plasmids were transfected into AD293 cells (60-80% confluence) with PEI. 30–40 hr post-transfection, culture medium was discarded and cells were incubated with 50 μl per well of 4 μM Rhod-2/AM (AAT Bioquest) in TARODES’s buffer (10 mM HEPES, 150 mM NaCl, 4 mM KCl, 2 mM MgCl2, 2 mM CaCl2, 11 mM glucose, pH 7.4) supplemented with 0.02% Pluronic F-127 (Sigma) for 5 min in dark at room temperature. Then dye was removed and replaced with 50 μl of TARODE’s buffer per well. The application of compounds and detection of intracellular calcium elevation were performed using FLIPR-TETRA (Molecular Devices) at room temperature (25–27°C). Fluorescence signals were read with excitation/emission at 510–545/565–625 nm.
[…]. Then fluorescence was measured for 300 s.
Buffer A contains 2× concentration of working concentration of inhibitor. […]. for control-Min, both buffer A and buffer B were replaced by TARODE’s buffer.
[…]; the average of fluorescence value of last 20 time points was considered as the ‘end fluorescence’. The value of ‘end fluorescence’ minus ‘start fluorescence’ was considered as ‘signal value’ for each well. […].
Three independent experiments were performed on different days (biological replicates), with each experiment containing three replicates (technique replicates).

SMILES: Clc1ccc(Cn2c(CN3CCCC3)nc3ccccc32)cc1 [CMZ, clemizole]
- Hill slope (CMZ): −1.21
- IC50 (CMZ, 14 mM extracellular calcium, read-out: IC50): 3.03 µM
- IC50 (CMZ, log of IC50 in μM, logIC50 ± SEM, n = 3, read-out: LogIC50 (converted)): 3.02 µM
- remaining activity at 0.200195 µM (read-out: normalized RFU (% WT), Clemizole 0.200195 μM, 14 mM Ca2+, each column one independent experiment): 83%
- remaining activity at 0.400391 µM (read-out: normalized RFU (% WT), Clemizole 0.400391 μM, 14 mM Ca2+, each column one independent experiment): 78.4%
- remaining activity at 0.800781 µM (read-out: normalized RFU (% WT), Clemizole 0.800781 μM, 14 mM Ca2+, each column one independent experiment): 82%
- remaining activity at 1.60156 µM (read-out: normalized RFU (% WT), Clemizole 1.60156 μM, 14 mM Ca2+, each column one independent experiment): 79.3%
- remaining activity at 3.20312 µM (read-out: normalized RFU (% WT), Clemizole 3.20312 μM, 14 mM Ca2+, each column one independent experiment): 50.6%
- remaining activity at 6.40625 µM (read-out: normalized RFU (% WT), Clemizole 6.40625 μM, 14 mM Ca2+, each column one independent experiment): 46.5%
- remaining activity at 12.8125 µM (read-out: normalized RFU (% WT), Clemizole 12.8125 μM, 14 mM Ca2+, each column one independent experiment): 40.3%

Reference: PMC7987348, “Structural basis for human TRPC5 channel inhibition by two distinct inhibitors” (eLife, 2021)
